Read-outs that look alike come from different tables or passages of the source.

Common to all, as to assay type: physicochemical
Data set [1] is described as follows: Gravimetric Vapour Sorption (GVS) moisture sorption isotherm. Conditions: for GVS reversible water uptake: between 0-90% RH; for Hygroscopicity: in words, by GVS. On the procedure:
Sorption isotherms were obtained using a SMS DVS Intrinsic moisture sorption analyser, controlled by DVS Intrinsic Control software. The sample temperature was maintained at 25° C. by the instrument controls. The humidity was controlled by mixing streams of dry and wet nitrogen, with a total flow rate of 200 ml/min. The relative humidity was measured by a calibrated Rotronic probe (dynamic range of 1.0-100% RH), located near the sample. The weight change, (mass relaxation) of the sample as a function of % RH was constantly monitored by a microbalance (accuracy ±0.005 mg). Typically, 5-30 mg of sample was placed in a tared mesh stainless steel basket under ambient conditions. The sample was loaded and unloaded at 40% RH and 25° C. (typical room conditions). A moisture sorption isotherm was performed as outlined below (2 scans per complete cycle). The standard isotherm was performed at 25° C. at 10% RH intervals over a 0-90% RH range. Typically, a double cycle (4 scans) was carried out. Data analysis was carried out within Microsoft Excel using the DVS Analysis Suite.
The sample was recovered after completion of the isotherm and re-analysed by XRPD.

Data set [2] can be described thus: Storage stability at elevated temperature and humidity (XRPD and HPLC purity after storage). Conditions: for Storage: XRPD pattern: 40° C./75% RH, after 7 days; for Stability at 25° C./97% RH and 40° C./75% RH: XRPD after storage; for Stability to increased temperature and humidity: in words, increased temperature (40° C.) and high humidity; for XRPD after storage at 40° C./75% RH: 7 days. On the procedure: Bruker AXS D8 Advance: XRPD diffractograms were collected on a Bruker D8 diffractometer using Cu Kα radiation (40 kV, 40 mA) and a θ-2θ goniometer fitted with a Ge monochromator. The incident beam passes through a 2.0 mm divergence slit followed by a 0.2 mm anti-scatter slit and knife edge. The diffracted beam passes through an 8.0 mm receiving slit with 2.5° Soller slits followed by the Lynxeye Detector. The software used for data collection and analysis was Diffrac Plus XRD Commander and Diffrac Plus EVA respectively. Samples were run under ambient conditions as flat plate specimens using powder as received. The sample was prepared on a polished, zero-background (510) silicon wafer by gently pressing onto the flat surface or packed into a cut cavity. The sample was rotated in its own plane. The details of the data collection method are: • Angular range: 2 to 42° 2θ • Step size: 0.05° 2θ • Collection time: 0.5 s/step (total collection time: 6.40 min)
Purity analysis was performed on an Agilent Ip 100/Infinity 111260 series system equipped with a diode array detector and using OpenLAB software. The full method details are provided below:
The three potential cocrystals were characterised using DSC, 1H NMR, TGA and by evaluating their stability with XRPD after 7 or 8 days of being stored at 40° C./75% RH. All three cocrystals were unchanged by XRPD after storage at 40° C./75% RH and none had significant amounts of solvent present (Table 28). The 4 HBA cocrystal appeared to have a similar melt to the starting material (ca. 85° C.). […] All initially appeared to have a 1:1 stoichiometry. […]

A short description of data set [3]: Thermo-Gravimetric Analysis (TGA). On the procedure: TA Instruments Discovery TGA: TGA data were collected on a TA Instruments Discovery TGA, equipped with a 25 position auto-sampler. Typically, 5 10 mg of each sample was loaded onto a pre-tared aluminium DSC pan and heated at 10° C./min from ambient temperature to 350° C. A nitrogen purge at 25 mlmL/min was maintained over the sample. The instrument control software was TRIOS and the data were analysed using Universal Analysis.

A short description of data set [4]: Differential Scanning Calorimetry (DSC). Conditions: for Melting point (onset): * = multiple thermal events; for DSC Endotherm, enthalpy / DSC Endotherm, onset temp: single endotherm; for DSC Endotherm, onset temp: followed by exothermic event. On the procedure:
TA Instruments Q2000: DSC data were collected on a TA Instruments Q2000 equipped with a 50 position auto sampler. Typically, 0.5 3 mg of each sample, in a pin-holed aluminium pan, was heated at 10° C./min from 25° C. to 235° C. A purge of dry nitrogen at 50 mlmL/min was maintained over the sample. The instrument control software was Advantage for Q Series and Thermal Advantage and the data were analysed using Universal Analysis or TRIOS.
TA Instruments Discovery DSC: DSC data were also collected on a TA Instruments Discovery DSC equipped with a 50 position auto-sampler. Typically, 0.5 3 mg of each sample, in a pin-holed aluminium pan, was heated at 10° C./min from 25° C. to 235° C. A purge of dry nitrogen at 50 mlmL/min was maintained over the sample. The instrument control software was TRIOS and the data were analysed using TRIOS or Universal Analysis.

A short description of data set [5]: Variable temperature XRPD (VT-XRPD). Here is the method: Non-ambient conditions: For variable temperature (VT-XRPD) experiments samples were mounted on an Anton Paar DHS 900 hot stage at ambient conditions. The sample was then heated to the appropriate temperature at 10° C./min and subsequently held isothermally for 2 minutes before data collection. Samples were prepared and analysed on a silicon wafer mounted to the hot stage using a heat-conducting paste.

A short description of data set [6]: Storage stability at elevated temperature and humidity (XRPD and HPLC purity after storage).

`O=C(O)c1ccc(O)cc1O.O=C(O)c1ccc(O)cc1O.O=C1C[C@H](c2cc(F)c(F)c(F)c2)CN1Cn1ncnc1Cl` [2,4-DHBA Pattern 1]: in data set [1], the “Hygroscopicity (GVS)” value is “Slightly hygroscopic”, the “XRPD post-GVS” value is “Some changes by XRPD post-GVS”, the “GVS reversible water uptake” value was 0.53% w/w reversible water uptake between 0-90% and the Hygroscopicity result is on record as “only slightly hygroscopic”. Further, in data set [1] (sample re-analysed by XRPD after isotherm), the “XRPD post-GVS” value is “slight changes”. Besides, in data set [2], the “Storage: XRPD pattern” value is “XRPD pattern unchanged after 7 days”; the “Stability at 25° C./97% RH and 40° C./75% RH” value is “Stable,”; the “Stability to increased temperature and humidity” value was “remains stable”. In data set [3], the “TGA mass loss prior to dissociation/degradation” value is listed as “No significant mass loss prior to dissociation/”. For the same molecule, the “TGA w/w loss on dissociation/degradation” value in data set [3] (followed by continual decomposition) is given as “degradation then 43.4% w/w loss followed by continual”. Moreover, in data set [4], the “Melting point (onset)” value was 138.2 °C; the “DSC Endotherm, enthalpy” value amounted to 91 J/g; the “DSC Endotherm, onset temp” value is 138.2 °C. Moreover, in data set [5], the “VT-XRPD pattern on heating” value is reported as “XRPD pattern remained unchanged until the sample” and the “VT-XRPD temperature at which sample melted” value is “melted at ca. 139 °C”. Besides, in data set [6] (25° C./97% RH, after 7 days), the “Storage: XRPD pattern” value is reported as “XRPD pattern unchanged after 7 days”. In addition, the “Storage: Purity” value in data set [6] (25° C./97% RH, after ca 1 month on storage) was “Purity: 99.7% (after ca 1 month on storage)”. For the same molecule, in data set [6] (40° C./75% RH, after ca 1 month on storage), the “Storage: Purity” value was “Purity: 97.9% (after ca 1 month on storage)”. Besides, in data set [6] (8 days), the “XRPD after storage at 40° C./75% RH” value is on record as 8 days: Unchanged.
Take `O=C(O)c1cc(O)cc(O)c1.O=C1C[C@H](c2cc(F)c(F)c(F)c2)CN1Cn1ncnc1Cl` [3,5-DHBA Pattern 1]: in data set [1], the “Hygroscopicity (GVS)” value is “Slightly hygroscopic”, the “XRPD post-GVS” value is “Unchanged by XRPD post-GVS”, the “GVS reversible water uptake” value is given as ~0.2% w/w reversible water uptake and the Hygroscopicity result was “only slightly hygroscopic”. Moreover, in data set [2], the “Storage: XRPD pattern” value was “XRPD Pattern unchanged after 7 days”; the “XRPD after storage at 40° C./75% RH” value is reported as 7 days: Unchanged; the “Stability to increased temperature and humidity” value is recorded as “remains stable”. For the same molecule, the “TGA onset of dissociation/decomposition” value in data set [3] was “ca. 120 °C”. Besides, in data set [4], the “DSC Endotherm, enthalpy” value is on record as 85 J/g and the “DSC Endotherm, onset temp” value came out at 113.3 °C. Further, in data set [5], the “VT-XRPD pattern on heating” value is “XRPD pattern remained unchanged until” and the “VT-XRPD temperature at which sample melted” value was “it melted at ca. 113 °C”. The “Storage: Purity” value in data set [6] (25° C./97% RH, 7 days) is reported as “Purity: 99.9%”. The “Storage: XRPD pattern” value in data set [6] (25° C./97% RH, after 7 days) is “XRPD Pattern unchanged after 7 days”. For the same molecule, in data set [6] (40° C./75% RH, 7 days), the “Storage: Purity” value is reported as “Purity: 99.7%”.
On to `O=C(O)c1ccc(O)cc1.O=C1C[C@H](c2cc(F)c(F)c(F)c2)CN1Cn1ncnc1Cl` [4-HBA Pattern 1], for which, in data set [1], the “Hygroscopicity (GVS)” value is on record as “Non-hygroscopic”; the “XRPD post-GVS” value is reported as “RH, unchanged by XRPD post-GVS”; the “GVS reversible water uptake” value was ~0.11% w/w reversible water uptake between 0-90%; the Hygroscopicity result was “non-hygroscopic”. In data set [2], the “XRPD after storage at 40° C./75% RH” value is reported as 7 days: Unchanged; the “Stability at 25° C./97% RH and 40° C./75% RH” value is “Stable,”; the “Stability to increased temperature and humidity” value is “stable”. In data set [3] (from 114-268° C., followed by continual decomposition), the TGA w/w loss was 29.0% w/w loss from 114-268 °C. Further, in data set [4], the “DSC 1st Endotherm, enthalpy” value came to 8 J/g; the “DSC 1st Endotherm, onset temp” value came to 70.6 °C; the “DSC 2nd Endotherm, enthalpy” value was determined as 56 J/g; the “DSC 2nd Endotherm, onset temp” value was 87.7 °C. Moreover, in data set [4], the “DSC Broad exotherm, enthalpy” value is given as 19 J/g; the “DSC Broad exotherm, onset temp” value came out at 110 °C; the “Melting point (onset)” value amounted to 87.7° C.*. Further, the “VT-XRPD pattern on heating” value in data set [5] was “XRPD pattern changes slightly on heating between 60 °C”. Also, the “Storage: Purity” value in data set [6] (25° C./97% RH, 11 days) is reported as “Purity: 99.9%”. For the same molecule, the “Storage: XRPD pattern” value in data set [6] (25° C./97% RH, after 11 days) is listed as “XRPD pattern unchanged after 11 days”. Further, in data set [6] (40° C./75% RH, 11 days), the “Storage: Purity” value is given as “Purity: 99.7%”. In addition, the “Storage: XRPD pattern” value in data set [6] (40° C./75% RH, after 11 days) is given as “XRPD pattern unchanged after 11 days”.
As to `O=C(O)c1cc(O)cc(O)c1.O=C1C[C@@H](c2cc(F)c(F)c(F)c2)CN1Cn1ncnc1Cl` [ARP-1725-71-02C], in data set [2], the “Stability at 25° C./97% RH and 40° C./75% RH” value is “Stable,”. Further, the “Melting point (onset)” value in data set [4] was determined as 113.3 °C.

Values taken from patent publication US20240132478A1, “COCRYSTAL” (Syndesi Therapeutics SA, priority 2020, published 2024).
